# Data taken from patent US6576634B1, “Pharmaceutical or dietetic preparation for improvement of fertility and sperm quality” (N.V. Nutricia, priority 2000, dated 2003).
# Columns and labels:
# [1] = tested on: men suffering from round cell idiopathic syndrome; conditions: 15 mg per day during 3 months; men with round cell idiopathic syndrome; cited from earlier work
# [2] = tested on: fertile men and subfertile men; assay: Spermcount after oral administration of folic acid, zinc or both, versus initial spermcount; type: in vivo; set-up: key to Percentage improvement of spermcount after administration of active agents, compared to initial spermcount: 0 means about neutral; The number of + signs indicates activity; ++: The number of + signs indicates activity; +++: The number of + signs indicates activity; +++(+): The number of + signs indicates activity; conditions: for Percentage improvement of spermcount after administration of active agents, compared to initial spermcount: daily administration during 5 months (table head; text says three months)
# spermatozoa = conditions: 10 mg over 30 days; cited from earlier work
# [3] = tested on: males that suffer from idopathic oligospermia; conditions: 220 mg zinc sulphate; idiopathic oligospermia; cited from earlier work
# fowl seminal plasma = conditions: zinc concentration above 3 μg per ml storage medium; cited from earlier work
SMILES,spermatozoa number and fertility [1],"Percentage improvement of spermcount after administration of active agents, compared to initial spermcount ([2]; fertile men)","sperm count ([2]; folate alone, especially subfertile men)","Percentage improvement of spermcount after administration of active agents, compared to initial spermcount ([2]; subfertile men)",sperm counts and motility and DNA content of spermatozoa (spermatozoa),"sperm counts ([2]; both groups, so also in fertile men)",sperm and number of spermatozoa having normal morfology and motility [3],fertility of fowl seminal plasma (fowl seminal plasma)
Nc1nc(=O)c2c([nH]1)NCC(CNc1ccc(C(=O)N[C@@H](CCC(=O)O)C(=O)O)cc1)N2C=O (mixture of isomers) [folinic acid],increases spermatozoa number and fertility,,,,,,,
"Nc1nc2ncc(CNc3ccc(C(=O)N[C@@H](CCC(=O)O)C(=O)O)cc3)nc2c(=O)[nH]1 [5 mg folate, folic acid]",,0,increases sperm count,+++,did not result in an increase,,,
"O=S(=O)([O-])[O-].[Zn+2] [15 mg zinc, zinc sulphate]",,+,,++,,increases sperm counts in both groups,improved significantly,reduced the fertility
